Test results published in ChEMBL document CHEMBL1201862, “PubChem BioAssay data set” (2004).
The source made the active and inactive calls.

What was measured:
Type in all cases: functional
[1] = biological target: T1, Inhibitor of nuclear factor kappa-B kinase subunit epsilon (Homo sapiens, UniProt Q14164); assay: Navigating the Kinome. Panel member name: IKBKE
T1 sequence (Q14164 whole entry): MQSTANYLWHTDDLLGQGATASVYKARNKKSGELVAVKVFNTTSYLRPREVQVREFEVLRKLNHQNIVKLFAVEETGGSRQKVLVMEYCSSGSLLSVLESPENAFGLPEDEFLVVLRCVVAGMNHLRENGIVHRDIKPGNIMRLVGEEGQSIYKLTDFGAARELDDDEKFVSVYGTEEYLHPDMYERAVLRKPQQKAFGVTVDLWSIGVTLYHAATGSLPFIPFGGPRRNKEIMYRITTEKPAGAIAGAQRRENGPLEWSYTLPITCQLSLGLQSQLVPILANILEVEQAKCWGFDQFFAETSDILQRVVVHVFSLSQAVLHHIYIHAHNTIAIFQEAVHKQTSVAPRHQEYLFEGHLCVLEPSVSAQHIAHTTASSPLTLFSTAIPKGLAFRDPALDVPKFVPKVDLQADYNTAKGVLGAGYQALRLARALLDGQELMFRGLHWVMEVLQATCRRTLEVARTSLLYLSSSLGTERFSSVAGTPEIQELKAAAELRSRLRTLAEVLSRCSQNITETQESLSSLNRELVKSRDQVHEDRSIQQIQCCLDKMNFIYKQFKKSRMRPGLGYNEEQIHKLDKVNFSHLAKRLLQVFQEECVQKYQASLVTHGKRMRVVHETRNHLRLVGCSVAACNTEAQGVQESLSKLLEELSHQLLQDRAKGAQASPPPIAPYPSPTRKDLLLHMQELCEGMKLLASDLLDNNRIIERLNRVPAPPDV

[2] = biological target: ALK tyrosine kinase receptor (Homo sapiens, UniProt Q9UM73);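 also: ALK tested as one member of a kinase panel screen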
[3] = biological target: Cyclin-dependent kinase 7 (Homo sapiens, UniProt P50613);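 also: value comes from a kinome-wide kinase profiling panel in which CDK7 is one member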
[4] = biological target: Cyclin-dependent kinase 8 (Homo sapiens, UniProt P49336); assay: Navigating the Kinome. Panel member name: CDK8
[5] = biological target: Mitogen-activated protein kinase kinase kinase kinase 4 (Homo sapiens, UniProt O95819)
[6] = biological target: Macrophage-stimulating protein receptor (Homo sapiens, UniProt Q04912); assay: Navigating the Kinome. Panel member name: MST1R
[7] = biological target: Fibroblast growth factor receptor 1 (Homo sapiens, UniProt P11362)
[8] = biological target: Death-associated protein kinase 3 (Homo sapiens, UniProt O43293);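 also: measured as one member of a kinome-wide profiling panel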
[9] = biological target: Vascular endothelial growth factor receptor 2 (Homo sapiens, UniProt P35968)
[10] = biological target: cAMP-dependent protein kinase catalytic subunit alpha (Homo sapiens, UniProt P17612)
Focal adhesion kinase 1 = Focal adhesion kinase 1 (Homo sapiens, UniProt Q05397);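 also: measured as one member of a kinome panel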
Activin receptor type-1 = biological target: T2, Activin receptor type-1 (Homo sapiens, UniProt Q04771); assay: Navigating the Kinome. Panel member name: ACVR1
T2 sequence (Q04771 whole entry): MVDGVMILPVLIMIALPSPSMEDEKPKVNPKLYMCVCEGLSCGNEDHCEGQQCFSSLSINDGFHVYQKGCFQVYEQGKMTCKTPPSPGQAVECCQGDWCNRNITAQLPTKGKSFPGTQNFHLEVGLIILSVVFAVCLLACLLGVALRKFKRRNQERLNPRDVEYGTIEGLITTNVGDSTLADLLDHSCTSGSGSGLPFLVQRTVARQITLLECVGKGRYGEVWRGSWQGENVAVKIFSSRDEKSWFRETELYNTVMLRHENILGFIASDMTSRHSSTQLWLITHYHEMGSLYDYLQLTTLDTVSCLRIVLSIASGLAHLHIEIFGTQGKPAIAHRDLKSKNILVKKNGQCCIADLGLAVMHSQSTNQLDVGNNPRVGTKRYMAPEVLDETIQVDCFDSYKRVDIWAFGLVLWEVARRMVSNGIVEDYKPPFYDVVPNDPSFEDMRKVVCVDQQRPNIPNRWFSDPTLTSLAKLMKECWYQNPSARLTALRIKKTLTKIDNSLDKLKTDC

[11] = biological target: T3, Replicative DNA helicase DnaB (Mycobacterium tuberculosis, UniProt P9WMR3); assay: DnaB intein splicing inhibitors, dose response, biochemical, cell-free fluorescence (AID 449749)
T3 sequence (P9WMR3 whole entry): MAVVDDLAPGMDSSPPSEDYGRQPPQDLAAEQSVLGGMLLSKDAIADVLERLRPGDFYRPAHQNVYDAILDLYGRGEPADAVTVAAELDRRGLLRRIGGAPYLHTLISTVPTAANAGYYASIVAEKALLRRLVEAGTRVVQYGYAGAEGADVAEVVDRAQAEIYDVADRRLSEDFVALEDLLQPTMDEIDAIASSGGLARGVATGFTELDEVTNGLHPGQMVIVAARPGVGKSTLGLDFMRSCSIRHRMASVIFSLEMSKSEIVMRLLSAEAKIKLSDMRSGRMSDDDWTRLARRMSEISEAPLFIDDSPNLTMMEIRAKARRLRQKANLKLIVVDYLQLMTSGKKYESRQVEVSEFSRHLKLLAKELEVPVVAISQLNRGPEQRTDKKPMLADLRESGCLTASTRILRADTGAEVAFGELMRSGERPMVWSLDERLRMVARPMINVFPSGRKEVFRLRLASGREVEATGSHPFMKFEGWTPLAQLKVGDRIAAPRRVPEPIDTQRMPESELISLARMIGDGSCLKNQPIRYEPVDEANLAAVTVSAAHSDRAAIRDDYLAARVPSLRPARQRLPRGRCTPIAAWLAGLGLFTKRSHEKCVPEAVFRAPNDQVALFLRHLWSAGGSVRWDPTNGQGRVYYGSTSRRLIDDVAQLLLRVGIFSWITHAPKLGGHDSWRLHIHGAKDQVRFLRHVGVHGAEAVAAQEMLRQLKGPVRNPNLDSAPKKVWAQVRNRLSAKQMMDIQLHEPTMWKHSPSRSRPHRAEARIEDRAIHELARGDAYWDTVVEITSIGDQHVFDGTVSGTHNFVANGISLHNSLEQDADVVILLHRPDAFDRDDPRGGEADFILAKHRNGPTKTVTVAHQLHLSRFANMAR

[12] = biological target: Tyrosine-protein kinase BTK (Homo sapiens, UniProt Q06187)
[13] = biological target: Calcium/calmodulin-dependent protein kinase type II subunit alpha (Homo sapiens, UniProt Q9UQM7); assay: Navigating the Kinome. Panel member name: CAMK2A
[14] = biological target: BDNF/NT-3 growth factors receptor (Homo sapiens, UniProt Q16620);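 also: NTRK2 measured as one member of a broad kinome-wide kinase profiling panel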
[15] = biological target: Mitogen-activated protein kinase 9 (Homo sapiens, UniProt P45984);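 also: value from a kinome panel profiling assay, MAPK9 panel entry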

Chain of Fibroblast growth factor receptor 1 (P11362 whole entry): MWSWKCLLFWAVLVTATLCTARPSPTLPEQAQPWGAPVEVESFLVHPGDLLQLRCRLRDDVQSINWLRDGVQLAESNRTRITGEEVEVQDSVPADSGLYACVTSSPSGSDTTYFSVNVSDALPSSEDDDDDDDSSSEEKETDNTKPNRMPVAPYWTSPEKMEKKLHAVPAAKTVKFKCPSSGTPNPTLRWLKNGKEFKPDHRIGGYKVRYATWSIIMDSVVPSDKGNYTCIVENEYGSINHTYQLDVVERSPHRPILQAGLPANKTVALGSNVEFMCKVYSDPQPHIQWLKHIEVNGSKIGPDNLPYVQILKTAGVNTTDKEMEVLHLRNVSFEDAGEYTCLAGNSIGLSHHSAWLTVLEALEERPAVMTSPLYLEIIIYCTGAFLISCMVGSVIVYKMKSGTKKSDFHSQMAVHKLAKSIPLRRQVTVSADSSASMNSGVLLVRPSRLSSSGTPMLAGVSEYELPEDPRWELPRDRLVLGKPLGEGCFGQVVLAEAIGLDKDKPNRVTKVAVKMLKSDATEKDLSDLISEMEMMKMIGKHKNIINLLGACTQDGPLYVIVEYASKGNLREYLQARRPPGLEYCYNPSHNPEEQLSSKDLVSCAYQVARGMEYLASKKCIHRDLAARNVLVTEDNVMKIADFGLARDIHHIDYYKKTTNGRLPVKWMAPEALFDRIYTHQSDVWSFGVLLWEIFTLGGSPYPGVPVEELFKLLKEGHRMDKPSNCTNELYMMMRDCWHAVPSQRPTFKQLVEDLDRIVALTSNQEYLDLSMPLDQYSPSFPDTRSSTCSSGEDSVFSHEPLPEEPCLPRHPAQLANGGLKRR
Chain of Vascular endothelial growth factor receptor 2 (P35968 whole entry): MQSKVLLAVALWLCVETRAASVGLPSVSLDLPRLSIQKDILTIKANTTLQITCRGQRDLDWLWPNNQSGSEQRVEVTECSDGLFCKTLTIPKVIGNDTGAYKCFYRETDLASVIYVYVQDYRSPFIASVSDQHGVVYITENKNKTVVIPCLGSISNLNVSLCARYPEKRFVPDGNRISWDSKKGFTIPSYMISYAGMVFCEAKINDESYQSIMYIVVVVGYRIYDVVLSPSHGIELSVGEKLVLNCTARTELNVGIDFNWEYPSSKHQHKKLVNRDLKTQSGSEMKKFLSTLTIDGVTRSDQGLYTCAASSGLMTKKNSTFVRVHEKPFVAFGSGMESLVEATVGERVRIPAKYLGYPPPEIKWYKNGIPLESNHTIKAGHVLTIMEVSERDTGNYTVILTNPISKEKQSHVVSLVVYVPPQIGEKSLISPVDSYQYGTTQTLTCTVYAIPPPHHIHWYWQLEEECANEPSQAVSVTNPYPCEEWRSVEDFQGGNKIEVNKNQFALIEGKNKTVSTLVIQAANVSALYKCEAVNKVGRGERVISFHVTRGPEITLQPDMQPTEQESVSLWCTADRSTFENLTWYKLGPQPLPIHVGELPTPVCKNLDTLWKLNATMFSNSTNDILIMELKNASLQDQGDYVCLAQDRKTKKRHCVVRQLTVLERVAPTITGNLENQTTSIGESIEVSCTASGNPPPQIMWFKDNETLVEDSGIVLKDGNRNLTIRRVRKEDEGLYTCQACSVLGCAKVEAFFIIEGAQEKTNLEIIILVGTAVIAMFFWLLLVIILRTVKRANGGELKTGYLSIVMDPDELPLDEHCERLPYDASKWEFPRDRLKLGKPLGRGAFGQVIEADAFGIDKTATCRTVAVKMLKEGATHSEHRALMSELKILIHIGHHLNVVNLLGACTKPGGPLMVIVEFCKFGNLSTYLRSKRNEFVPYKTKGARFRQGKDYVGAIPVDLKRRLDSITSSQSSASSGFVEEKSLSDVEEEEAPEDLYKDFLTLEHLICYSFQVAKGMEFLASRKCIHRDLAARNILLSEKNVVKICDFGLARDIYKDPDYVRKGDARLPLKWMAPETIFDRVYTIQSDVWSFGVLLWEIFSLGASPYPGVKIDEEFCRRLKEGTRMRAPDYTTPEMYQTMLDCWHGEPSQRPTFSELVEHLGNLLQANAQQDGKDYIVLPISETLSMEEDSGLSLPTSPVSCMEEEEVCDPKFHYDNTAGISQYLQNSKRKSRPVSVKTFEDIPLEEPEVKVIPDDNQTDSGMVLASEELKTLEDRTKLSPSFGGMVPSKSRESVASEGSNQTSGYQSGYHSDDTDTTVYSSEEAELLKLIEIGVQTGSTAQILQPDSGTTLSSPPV
Chain of Tyrosine-protein kinase BTK (Q06187 whole entry): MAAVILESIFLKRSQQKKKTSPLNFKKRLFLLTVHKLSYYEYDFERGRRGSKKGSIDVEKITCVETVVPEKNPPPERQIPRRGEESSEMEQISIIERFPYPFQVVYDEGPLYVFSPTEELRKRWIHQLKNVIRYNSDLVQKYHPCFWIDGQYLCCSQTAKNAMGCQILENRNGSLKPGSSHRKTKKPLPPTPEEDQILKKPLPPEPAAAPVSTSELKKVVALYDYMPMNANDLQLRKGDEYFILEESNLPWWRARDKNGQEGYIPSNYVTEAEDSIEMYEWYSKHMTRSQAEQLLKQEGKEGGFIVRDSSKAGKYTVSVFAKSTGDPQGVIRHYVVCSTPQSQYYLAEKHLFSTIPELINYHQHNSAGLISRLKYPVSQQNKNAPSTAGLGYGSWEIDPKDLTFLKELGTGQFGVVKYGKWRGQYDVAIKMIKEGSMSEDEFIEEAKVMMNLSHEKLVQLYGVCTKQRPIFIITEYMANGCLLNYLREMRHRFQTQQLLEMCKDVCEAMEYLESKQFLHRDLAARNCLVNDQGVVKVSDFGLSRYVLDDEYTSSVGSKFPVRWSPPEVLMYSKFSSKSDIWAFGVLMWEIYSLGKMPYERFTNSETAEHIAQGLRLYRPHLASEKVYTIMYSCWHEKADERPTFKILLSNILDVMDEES
Chain of Focal adhesion kinase 1 (Q05397 whole entry): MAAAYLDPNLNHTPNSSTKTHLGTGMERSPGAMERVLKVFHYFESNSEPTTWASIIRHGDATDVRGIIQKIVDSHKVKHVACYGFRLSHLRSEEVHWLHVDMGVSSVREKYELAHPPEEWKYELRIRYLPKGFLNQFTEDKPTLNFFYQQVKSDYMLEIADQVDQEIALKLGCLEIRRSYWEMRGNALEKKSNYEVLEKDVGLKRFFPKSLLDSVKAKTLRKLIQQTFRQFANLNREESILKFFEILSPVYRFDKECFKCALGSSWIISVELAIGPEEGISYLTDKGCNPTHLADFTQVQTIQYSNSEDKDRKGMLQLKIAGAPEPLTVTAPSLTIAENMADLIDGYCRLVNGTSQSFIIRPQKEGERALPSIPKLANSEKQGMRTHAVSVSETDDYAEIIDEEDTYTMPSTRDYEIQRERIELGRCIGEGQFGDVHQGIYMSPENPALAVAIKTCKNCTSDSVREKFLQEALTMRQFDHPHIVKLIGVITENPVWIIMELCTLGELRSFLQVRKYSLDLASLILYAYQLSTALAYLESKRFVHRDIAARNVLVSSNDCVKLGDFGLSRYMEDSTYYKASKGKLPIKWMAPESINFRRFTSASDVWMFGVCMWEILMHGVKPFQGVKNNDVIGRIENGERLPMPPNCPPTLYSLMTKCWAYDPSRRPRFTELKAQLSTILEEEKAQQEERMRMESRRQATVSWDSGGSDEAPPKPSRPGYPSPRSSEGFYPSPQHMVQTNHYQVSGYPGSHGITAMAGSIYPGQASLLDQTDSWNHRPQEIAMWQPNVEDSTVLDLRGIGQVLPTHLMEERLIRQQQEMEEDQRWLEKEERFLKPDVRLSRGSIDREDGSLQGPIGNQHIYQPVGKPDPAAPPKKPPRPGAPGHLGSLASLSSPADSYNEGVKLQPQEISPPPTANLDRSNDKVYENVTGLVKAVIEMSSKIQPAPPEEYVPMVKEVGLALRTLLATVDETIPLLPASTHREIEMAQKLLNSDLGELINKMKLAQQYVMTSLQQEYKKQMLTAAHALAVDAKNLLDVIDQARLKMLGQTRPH
Chain of Death-associated protein kinase 3 (O43293 whole entry): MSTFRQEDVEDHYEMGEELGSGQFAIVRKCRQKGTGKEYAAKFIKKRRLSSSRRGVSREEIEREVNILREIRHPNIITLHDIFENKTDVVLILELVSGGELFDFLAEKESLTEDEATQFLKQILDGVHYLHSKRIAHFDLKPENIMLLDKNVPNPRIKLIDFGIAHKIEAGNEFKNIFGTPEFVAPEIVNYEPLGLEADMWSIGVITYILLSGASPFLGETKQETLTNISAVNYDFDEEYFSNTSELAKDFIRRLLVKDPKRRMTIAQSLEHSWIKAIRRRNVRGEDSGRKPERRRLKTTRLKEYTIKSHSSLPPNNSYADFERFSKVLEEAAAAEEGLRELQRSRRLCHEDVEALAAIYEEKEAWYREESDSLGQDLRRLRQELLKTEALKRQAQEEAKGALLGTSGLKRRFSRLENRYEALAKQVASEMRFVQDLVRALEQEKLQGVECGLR
Chain of Cyclin-dependent kinase 7 (P50613 whole entry): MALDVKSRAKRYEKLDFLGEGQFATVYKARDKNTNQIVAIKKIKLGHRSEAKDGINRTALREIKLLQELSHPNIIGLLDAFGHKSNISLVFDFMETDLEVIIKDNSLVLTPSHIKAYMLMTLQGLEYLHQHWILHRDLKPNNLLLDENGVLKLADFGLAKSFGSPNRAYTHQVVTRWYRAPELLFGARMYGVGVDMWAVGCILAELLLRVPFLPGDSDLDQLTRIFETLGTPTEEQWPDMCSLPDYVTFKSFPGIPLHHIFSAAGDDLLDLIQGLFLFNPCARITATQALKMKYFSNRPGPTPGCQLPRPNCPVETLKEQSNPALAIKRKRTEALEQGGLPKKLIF

O=c1[nH]c2cc(Br)cnc2[nH]1
Ki [1]: 39.8 µM (active) | Ki [2]: 63.1 µM (active) | Ki [3]: 12.6 µM (active) | Ki [4]: 7.94 µM (active) | Ki [5]: 50.1 µM (active) | Ki [6]: 63.1 µM (active) | Ki [7]: 50.1 µM (active) | Ki [8]: 12.6 µM (active) | Ki [9]: 20 µM (active) | Ki [10]: > 50.1 µM (inactive) | Ki (Focal adhesion kinase 1): 31.6 µM (active) | Ki (Activin receptor type-1): 25.1 µM (active)

O=C(Cc1ccccc1)NC1(O)C(=O)c2ccccc2C1=O
AC50 [11]: 6.13 µM (active)

CCC1CC(NS(=O)(=O)C2CC2)CC1c1ncc2cnc3[nH]ccc3n12 (centres undefined)
Ki [1]: > 3.16 µM (inactive) | Ki [2]: 1 µM (active) | Ki [3]: > 3.98 µM (inactive) | Ki [4]: > 3.16 µM (inactive) | Ki [5]: > 5.01 µM (inactive) | Ki [6]: 2 µM (active) | Ki [12]: > 6.31 µM (inactive) | Ki [7]: 1.26 µM (active) | Ki [13]: 2.51 µM (active) | Ki [8]: 0.794 µM (active) | Ki [9]: 1 µM (active) | Ki [10]: 0.2 µM (active) | Ki [14]: > 3.98 µM (inactive) | Ki (Focal adhesion kinase 1): > 6.31 µM (inactive) | Ki (Activin receptor type-1): > 3.98 µM (inactive) | Ki [15]: > 3.98 µM (inactive)

O=C(Nc1cccc(C(F)(F)F)n1)Nc1ccnc2cc(OC(F)F)ccc12
Ki [1]: > 3.16 µM (inactive) | Ki [2]: > 6.31 µM (inactive) | Ki [3]: > 3.98 µM (inactive) | Ki [4]: > 3.98 µM (inactive) | Ki [5]: > 5.01 µM (inactive) | Ki [6]: > 3.98 µM (inactive) | Ki [12]: > 6.31 µM (inactive) | Ki [7]: > 3.98 µM (inactive) | Ki [13]: > 6.31 µM (inactive) | Ki [8]: > 5.01 µM (inactive) | Ki [9]: > 1.58 µM (inactive) | Ki [14]: > 3.98 µM (inactive) | Ki (Focal adhesion kinase 1): > 6.31 µM (inactive) | Ki [15]: > 3.98 µM (inactive)

O=C(Nc1cccc(C(F)(F)F)n1)Nc1ccnc2cc(Cl)ccc12
Ki [1]: > 3.16 µM (inactive) | Ki [2]: > 6.31 µM (inactive) | Ki [3]: > 3.98 µM (inactive) | Ki [4]: > 3.98 µM (inactive) | Ki [6]: > 3.98 µM (inactive) | Ki [12]: > 6.31 µM (inactive) | Ki [7]: > 3.98 µM (inactive) | Ki [13]: > 7.94 µM (inactive) | Ki [8]: > 5.01 µM (inactive) | Ki [9]: > 2.51 µM (inactive) | Ki [10]: > 1.26 µM (inactive) | Ki [14]: > 3.98 µM (inactive) | Ki (Activin receptor type-1): 1 µM (active) | Ki [15]: > 3.98 µM (inactive)

COC(=O)c1nc(-c2ccc3c(n2)C(=O)C(=N)C(OC)=C3O)c(N)c(-c2ccc(OC)c(OC)c2O)c1C
AC50 [11]: > 380 µM (inconclusive)

Cc1cc(C)c(S(=O)(=O)/N=C2\C=C(Nc3ccc(C(=O)O)cc3)C(=O)c3ccccc32)c(C)c1
AC50 [11]: 0.149 µM (active)
